Where two headings read alike, the source gives them in different places.
Experiments:
Test in all cases: Kinase profiling in a biochemical assay panel (mobility shift assays and ELISA), %-inhibition at 1 μM; selectivity entropy
[1] = target: panel of more than 300 wild-type and mutant kinases (313 kinase panel) (Homo sapiens, UniProt Q9NYA1)
[2] = target: panel of more than 300 wild-type and mutant kinases (313 kinase panel) (Homo sapiens, UniProt Q13882)
[3] = target: T1, panel of more than 300 wild-type and mutant kinases (313 kinase panel) (Homo sapiens, UniProt P51817)
T1 sequence (P51817 1-358): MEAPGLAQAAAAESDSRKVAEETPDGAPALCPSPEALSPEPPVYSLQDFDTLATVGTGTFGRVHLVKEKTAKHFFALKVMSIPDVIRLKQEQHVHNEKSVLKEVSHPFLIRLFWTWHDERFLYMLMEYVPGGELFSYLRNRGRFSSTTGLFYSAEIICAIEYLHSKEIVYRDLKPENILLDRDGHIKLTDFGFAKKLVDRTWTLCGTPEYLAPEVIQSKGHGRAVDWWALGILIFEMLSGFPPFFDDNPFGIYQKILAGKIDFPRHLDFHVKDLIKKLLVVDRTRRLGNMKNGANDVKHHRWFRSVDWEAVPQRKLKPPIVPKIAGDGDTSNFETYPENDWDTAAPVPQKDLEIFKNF

[4] = target: panel of more than 300 wild-type and mutant kinases (313 kinase panel) (Homo sapiens, UniProt Q00534)
[5] = target: panel of more than 300 wild-type and mutant kinases (313 kinase panel) (Homo sapiens, UniProt P54646)
[6] = target: panel of more than 300 wild-type and mutant kinases (313 kinase panel) (Homo sapiens, UniProt Q8N4C8)
panel of more than 300 wild-type and mutant kinases (313 kinase panel) (Homo sapiens, UniProt Q8N4C8), sequence (Q8N4C8 whole entry, change not shown): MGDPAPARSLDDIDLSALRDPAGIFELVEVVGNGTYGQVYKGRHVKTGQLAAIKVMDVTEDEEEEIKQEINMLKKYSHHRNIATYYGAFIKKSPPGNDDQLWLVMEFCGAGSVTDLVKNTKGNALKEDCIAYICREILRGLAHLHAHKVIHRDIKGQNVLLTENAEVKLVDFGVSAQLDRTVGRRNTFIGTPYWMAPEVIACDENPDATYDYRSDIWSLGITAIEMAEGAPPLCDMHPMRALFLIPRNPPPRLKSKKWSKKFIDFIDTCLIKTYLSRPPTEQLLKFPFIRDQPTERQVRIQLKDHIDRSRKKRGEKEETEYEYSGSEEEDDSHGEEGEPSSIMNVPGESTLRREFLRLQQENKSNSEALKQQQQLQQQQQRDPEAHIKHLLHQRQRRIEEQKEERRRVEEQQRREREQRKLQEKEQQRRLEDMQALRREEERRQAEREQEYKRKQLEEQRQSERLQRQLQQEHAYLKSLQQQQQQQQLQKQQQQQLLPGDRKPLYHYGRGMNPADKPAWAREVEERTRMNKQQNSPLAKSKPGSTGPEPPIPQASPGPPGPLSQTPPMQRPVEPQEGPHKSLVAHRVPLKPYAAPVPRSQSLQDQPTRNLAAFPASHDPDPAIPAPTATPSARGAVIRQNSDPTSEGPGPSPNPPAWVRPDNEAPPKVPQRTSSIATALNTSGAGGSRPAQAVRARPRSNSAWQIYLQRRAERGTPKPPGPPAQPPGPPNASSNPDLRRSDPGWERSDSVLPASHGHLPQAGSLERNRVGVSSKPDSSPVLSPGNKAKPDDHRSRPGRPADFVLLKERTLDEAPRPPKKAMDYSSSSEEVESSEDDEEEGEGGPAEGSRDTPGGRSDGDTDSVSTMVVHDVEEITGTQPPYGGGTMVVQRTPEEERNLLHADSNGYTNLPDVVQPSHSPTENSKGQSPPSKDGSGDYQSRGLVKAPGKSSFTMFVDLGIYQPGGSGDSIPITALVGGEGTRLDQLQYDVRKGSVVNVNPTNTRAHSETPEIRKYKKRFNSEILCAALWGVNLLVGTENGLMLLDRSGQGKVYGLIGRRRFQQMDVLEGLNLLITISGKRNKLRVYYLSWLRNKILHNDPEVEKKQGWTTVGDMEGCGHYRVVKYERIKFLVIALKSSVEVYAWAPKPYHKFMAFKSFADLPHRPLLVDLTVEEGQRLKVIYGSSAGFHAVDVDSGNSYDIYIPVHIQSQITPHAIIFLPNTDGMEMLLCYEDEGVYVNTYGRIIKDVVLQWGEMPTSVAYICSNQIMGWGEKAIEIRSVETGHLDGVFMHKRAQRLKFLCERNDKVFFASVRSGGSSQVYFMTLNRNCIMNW

[7] = target: panel of more than 300 wild-type and mutant kinases (313 kinase panel) (Homo sapiens, UniProt Q9H4B4)
panel of more than 300 wild-type and mutant kinases (313 kinase panel) (Homo sapiens, UniProt Q9H4B4), sequence (Q9H4B4 whole entry, change not shown): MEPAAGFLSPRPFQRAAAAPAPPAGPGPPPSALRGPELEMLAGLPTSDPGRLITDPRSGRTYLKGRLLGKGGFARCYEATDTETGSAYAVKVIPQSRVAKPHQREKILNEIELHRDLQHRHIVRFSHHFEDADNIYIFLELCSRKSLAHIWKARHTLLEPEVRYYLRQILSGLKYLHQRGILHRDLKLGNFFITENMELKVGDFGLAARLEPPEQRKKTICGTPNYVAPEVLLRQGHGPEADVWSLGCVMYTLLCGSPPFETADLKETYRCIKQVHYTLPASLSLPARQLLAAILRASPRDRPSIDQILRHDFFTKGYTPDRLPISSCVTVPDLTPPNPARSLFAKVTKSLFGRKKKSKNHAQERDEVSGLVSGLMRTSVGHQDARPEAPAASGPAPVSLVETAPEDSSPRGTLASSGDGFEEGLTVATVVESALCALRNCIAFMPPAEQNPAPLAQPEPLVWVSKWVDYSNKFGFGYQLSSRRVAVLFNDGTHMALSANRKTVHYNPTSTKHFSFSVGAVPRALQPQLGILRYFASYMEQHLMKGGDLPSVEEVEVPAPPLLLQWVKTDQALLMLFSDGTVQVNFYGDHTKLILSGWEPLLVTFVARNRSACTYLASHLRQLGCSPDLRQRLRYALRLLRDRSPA

[8] = target: panel of more than 300 wild-type and mutant kinases (313 kinase panel) (Homo sapiens, UniProt P11802)
panel of more than 300 wild-type and mutant kinases (313 kinase panel) (Homo sapiens, UniProt P11802), sequence (P11802 whole entry, change not shown): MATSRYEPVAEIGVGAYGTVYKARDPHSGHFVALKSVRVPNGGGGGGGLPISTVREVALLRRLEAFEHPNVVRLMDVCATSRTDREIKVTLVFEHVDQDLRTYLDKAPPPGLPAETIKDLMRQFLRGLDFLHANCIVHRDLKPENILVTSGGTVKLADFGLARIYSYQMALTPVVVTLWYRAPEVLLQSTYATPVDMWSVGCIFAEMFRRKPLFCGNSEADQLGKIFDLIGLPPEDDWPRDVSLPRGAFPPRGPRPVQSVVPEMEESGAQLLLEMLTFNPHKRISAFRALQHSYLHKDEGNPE

[9] = target: T2, panel of more than 300 wild-type and mutant kinases (313 kinase panel) (Homo sapiens, UniProt O15264)
T2 sequence (O15264 1-365): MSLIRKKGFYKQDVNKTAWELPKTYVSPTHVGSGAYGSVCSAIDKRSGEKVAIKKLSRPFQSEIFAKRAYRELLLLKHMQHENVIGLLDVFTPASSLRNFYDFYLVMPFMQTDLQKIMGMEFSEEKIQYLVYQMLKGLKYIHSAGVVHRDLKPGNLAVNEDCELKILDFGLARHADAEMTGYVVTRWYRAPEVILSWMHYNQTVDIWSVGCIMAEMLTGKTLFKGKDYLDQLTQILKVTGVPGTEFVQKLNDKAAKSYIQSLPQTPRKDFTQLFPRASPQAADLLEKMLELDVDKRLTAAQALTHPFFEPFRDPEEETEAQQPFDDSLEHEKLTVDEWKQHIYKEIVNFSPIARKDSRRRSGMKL

[10] = target: panel of more than 300 wild-type and mutant kinases (313 kinase panel) (Homo sapiens, UniProt Q13627)
[11] = kinase CDK6/CycD3, 1 μM compound
[12] = kinase AMPKα2/β1/γ1, 1 μM compound
[13] = kinase CDK4/CycD3, 1 μM compound
[14] = kinase DYRK1A, compound at 1 μM

panel of more than 300 wild-type and mutant kinases (313 kinase panel) (Homo sapiens, UniProt Q13882), sequence (Q13882 whole entry, change not shown): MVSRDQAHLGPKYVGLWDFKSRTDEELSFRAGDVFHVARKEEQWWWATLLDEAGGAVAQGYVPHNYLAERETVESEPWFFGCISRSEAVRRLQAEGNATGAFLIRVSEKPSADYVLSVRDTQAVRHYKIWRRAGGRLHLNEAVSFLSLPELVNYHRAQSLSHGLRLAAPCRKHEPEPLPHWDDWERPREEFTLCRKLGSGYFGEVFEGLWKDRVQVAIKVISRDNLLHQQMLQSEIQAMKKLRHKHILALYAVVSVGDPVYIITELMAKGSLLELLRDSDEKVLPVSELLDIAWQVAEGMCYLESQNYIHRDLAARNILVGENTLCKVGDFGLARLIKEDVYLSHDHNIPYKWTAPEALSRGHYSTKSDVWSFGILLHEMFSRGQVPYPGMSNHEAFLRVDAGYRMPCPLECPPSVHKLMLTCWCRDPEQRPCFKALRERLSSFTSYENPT

Row | Compound | %-inhibition of SPHK1 ([1]; kinase SPHK1, 1 μM) [%] | %-inhibition, BRK ([2]; kinase BRK, 1 μM compound) [%] | %-inhibition of PRKX ([3]; kinase PRKX, 1 μM) [%] | %-inhibition, CDK6/CycD3 [4, 11] [%] | %-inhibition, AMPKα2/β1/γ1 [5, 12] [%] | %-inhibition of MINK ([6]; kinase MINK, 1 μM) [%] | %-inhibition of PLK3 ([7]; kinase PLK3, 1 μM) [%] | %-inhibition, CDK4/CycD3 [8, 13] [%] | %-inhibition of p38δ ([9]; kinase p38δ, 1 μM) [%] | %-inhibition of DYRK1A [10, 14] [%] | %-inhibition, BRK ([2]; 1 µM) [%] | %-inhibition, CDK4/CycD3 ([8]; 1 µM) [%] | %-inhibition of PRKX ([3]; 1 µM) [%] | %-inhibition, CDK6/CycD3 ([4]; 1 µM) [%] | %-inhibition, AMPKα2/β1/γ1 ([5]; 1 µM) [%] | %-inhibition of MINK ([6]; 1 µM) [%] | %-inhibition of p38δ ([9]; 1 µM) [%] | %-inhibition of PLK3 ([7]; 1 µM) [%] | %-inhibition of DYRK1A [10] [%] | %-inhibition of SPHK1 ([1]; 1 µM) [%]
1 | CN(C)C/C=C/C(=O)Nc1cc2c(Nc3ccc(F)c(Cl)c3)ncnc2cc1O[C@H]1CCOC1 [afatinib] | -2 | – | – | – | – | – | – | – | – | – | – | – | – | – | – | – | – | – | – | –
2 | COc1cc(Nc2c(C#N)cnc3cc(OCCCN4CCN(C)CC4)c(OC)cc23)c(Cl)cc1Cl [bosutinib] | -23 | 35 | -4.31 | 0.0624 | 10 | 100 | 0.877 | – | – | – | – | – | – | – | – | – | – | – | – | –
3 | COc1cc2nccc(Oc3ccc(NC(=O)C4(C(=O)Nc5ccc(F)cc5)CC4)cc3)c2cc1OC [cabozantinib] | -12 | – | -2.42 | 0.312 | 1.75 | -2 | -1.07 | -5 | 47 | -5 | – | – | – | – | – | – | – | – | – | –
4 | C[C@@H](Oc1cc(-c2cnn(C3CCNCC3)c2)cnc1N)c1c(Cl)ccc(F)c1Cl [crizotinib] | -14 | 15 | -7 | 0.0624 | 27 | 0 | -2.24 | 7 | -3.41 | -13 | – | – | – | – | – | – | – | – | – | –
5 | CC(C)(C)c1nc(-c2cccc(NS(=O)(=O)c3c(F)cccc3F)c2F)c(-c2ccnc(N)n2)s1 [dabrafenib] | -18 | 98 | -1.55 | – | – | -0.772 | – | – | -3.43 | 16 | – | – | – | – | – | – | – | – | – | –
6 | Cc1nc(Nc2ncc(C(=O)Nc3c(C)cccc3Cl)s2)cc(N2CCN(CCO)CC2)n1 [dasatinib] | – | – | – | 9 | – | 40 | 10 | 2.8 | 0.799 | – | – | – | – | – | – | – | – | – | – | –
7 | C#Cc1cccc(Nc2ncnc3cc(OCCOC)c(OCCOC)cc23)c1 [erlotinib] | – | – | – | – | – | – | – | – | – | – | 47 | 1.86 | 2 | 9 | 4.43 | 19 | 6 | 6 | 20 | -14
8 | CO[C@H]1C[C@@H]2CC[C@@H](C)[C@@](O)(O2)C(=O)C(=O)N2CCCC[C@H]2C(=O)O[C@H]([C@H](C)C[C@@H]2CC[C@@H](OCCO)[C@H](OC)C2)CC(=O)[C@H](C)/C=C(\C)[C@@H](O)[C@@H](OC)C(=O)[C@H](C)C[C@H](C)/C=C/C=C/C=C/1C [everolimus] | -16 | -4.32 | -4.49 | -3 | -6 | -7.49 | -1.66 | -9 | -9 | -11 | – | – | – | – | – | – | – | – | – | –
9 | O=S(=O)(c1cccc2cnccc12)N1CCCNCC1 [fasudil] | -15 | -6 | 86 | -5.68 | 5 | -1.41 | -4.66 | -2.33 | -4.39 | 4.23 | – | – | – | – | – | – | – | – | – | –
10 | CS(=O)(=O)CCNCc1ccc(-c2ccc3ncnc(Nc4ccc(OCc5cccc(F)c5)c(Cl)c4)c3c2)o1 [lapatinib] | -11 | – | 0.493 | 5 | – | – | 6 | – | 5.43 | – | 63 | 1.35 | – | – | -7.39 | -0.581 | – | – | 3.25 | –
11 | Cc1cn(-c2cc(NC(=O)c3ccc(C)c(Nc4nccc(-c5cccnc5)n4)c3)cc(C(F)(F)F)c2)cn1 [nilotinib] | 11 | 75 | 6 | -23 | -0.54 | 3 | 26 | – | -10 | – | – | -4 | – | – | – | – | – | – | -6.52 | –
12 | Cc1ccc(Nc2nccc(N(C)c3ccc4c(C)n(C)nc4c3)n2)cc1S(N)(=O)=O [pazopanib] | 1.19 | 70 | -1.14 | 9 | 0.826 | 35 | 9 | 16 | -0.586 | – | – | – | – | – | – | – | – | – | – | –
13 | Cc1ccc(C(=O)Nc2ccc(CN3CCN(C)CC3)c(C(F)(F)F)c2)cc1C#Cc1cnc2cccnn12 [ponatinib] | -20 | 97 | 26 | 25 | 89 | 80 | -11 | 24 | – | – | – | – | – | – | – | – | – | – | – | –
